Reference: article PMC11413854, “Reversible Control of Native GluN2B-Containing NMDA Receptors with Visible Light” (ACS Chemical Neuroscience, 2024)
Several values for one entry are separate records, joined by “and”; a condition that tells them apart may be missing. Identical values can stand only once.

System: Xenopus laevis tadpoles
Assay: Behavioral test: locomotion of free-swimming tadpoles under light cycles
Type: in vivo
Settings: for reduction in locomotor activity in the dark vs baseline / Normalized travelled distance by tadpoles (/baseline/control), mean: 5 µM; for reduction in locomotor activity in the dark vs baseline: 45 min incubation; for Normalized travelled distance by tadpoles (/baseline): per well (mean of 3 tadpoles)
Protocol: In our behavioral assay, tadpoles were placed in groups of three animals per well of a 12-well plate allowing them to swim freely. Their baseline locomotion was recorded for 3 min in the dark, after which they were incubated for 45 min in a solution containing either 0.1% DMSO (control) or 5 μM OptoNAM-3 (refer to Methods and Figure S5A for details). For each condition (control and OptoNAM-3), tadpole locomotion was recorded for 3 min in the dark, followed by cycles of 1 min illumination at 365 nm and then 550 nm, and interspersed with 3 min rest periods to avoid bias due to a poststimulation refractory period[51],[56] (Figure S5A). We also conducted the same protocol using 460/550 nm light cycles, as OptoNAM-3 can switch from the trans to cis state upon exposure to blue light at 460 nm when pre-equilibrated on cells (see above). The tadpole traveled distance was calculated from precise position coordinates of tadpole body parts across frames, assessed by automatic position multianimal tracking using the open-source program DeepLabCut.[57],[58]Xenopus laevis tadpoles present nonvisual photoreceptors that generate a photomotor response characterized by an increase of activity upon UV light illumination.[59] We indeed observed an increase in tadpole locomotion with UV and blue light compared to 550 nm light in the control condition (∼1.5-fold, Figures 6A,B and S5B,C, gray points). The photodependent effect of OptoNAM-3 on locomotion was therefore quantified by calculating the traveled distance normalized twice: by the tadpole baseline locomotion (to decrease interindividual variability linked to the locomotion speed) and, for each condition, by the locomotion of the control group (to remove the nonspecific effect of UV or blue light). […] Their locomotion could be restored to baseline activity with UV or blue light and inhibited again by 550 nm light for two cycles (Figure 6C,D and Movies S1 and S2). Consequently, OptoNAM-3 enabled fast and reversible control of tadpole locomotion using light. In addition, the compound red-shifted properties observed in vitro were conserved in vivo. OptoNAM-3 therefore holds great promise to photocontrol native GluN2B-NMDARs with the high biocompatibility of red-shifted photoswitches.[29],[31]
Xenopus laevis embryos were obtained from the European Xenopus Resource Centre (EXRC, Portsmouth, UK) or TEFOR Paris Sackay (Saclay, France), maintained in Modified Barth’s Saline (MBS) 0.1× (pH adjusted to 7.8 with NaOH), and supplemented with 10 μg/mL of gentamicin, in 10 cm Petri dishes with a maximum of 50 tadpoles per dish. The embryos were stored at 18 °C until they reached stage 49 (12–14 days postfertilization).[86] Experiments on Xenopus tadpoles were performed according to European Union guidelines (project authorization Apafis #44976–2023092616413977)
For the experiments (see Figure S5A), stage 49 X. laevis tadpoles were placed in the center of a 12-well plate at a density of three animals per well in 0.1× MBS. The 12-well plate was covered with a 3D-printed dome equipped with a liquid guide (15 cm) connected to a multichannel LED delivery system (CoolLed pE-4000) at the top. The plate was positioned on optical cast plastic infrared filters, which allowed only wavelengths above 650 nm to pass, and red light (770 nm at 15% intensity) was continuously applied during recording to enable video recording in the dark. […] Subsequently, the tadpoles were incubated in the dark for 30 min in a 60 × 15 mm Petri dish containing 5 mL of either the vehicle (0.1% DMSO in MBS 0.1×) or OptoNAM-3 solution (5 μM in MBS 0.1×) to facilitate drug penetration. Afterward, the tadpoles were transferred back to the 12-well plate, which contained either the vehicle solution or OptoNAM-3 (5 μM), and habituation to red light was performed again for 15 min. […]

[1] = Sup. Fig. 5B, UV/green cycles, second data block (c27-c50), raw

With c1ccc(/N=N/c2ccc(CCNc3ccncc3)cc2)cc1 [OptoNAM-3, (E)-N-(4-(Phenyldiazenyl)phenethyl)pyridin-4-amine] as the compound, how does the “reduction in locomotor activity in the dark vs baseline” value (UV/visible cycle protocol group) read?
The value was 35%.

And the “reduction in locomotor activity in the dark vs baseline” value (blue/green cycle protocol group)?
The value was 50%.

What about the “Normalized travelled distance by tadpoles (/baseline/control), mean” value (Fig 6C, 365 nm (1), UV/green light cycle experiment) of the same compound?
The value was 1.089.

And the “Normalized travelled distance by tadpoles (/baseline/control), mean” value (Fig 6C, 365 nm (2), UV/green light cycle experiment)?
The value was 0.883.

And the “Normalized travelled distance by tadpoles (/baseline/control), mean” value (Fig 6C, 550 nm (1), UV/green light cycle experiment)?
The value was 0.484.

And the “Normalized travelled distance by tadpoles (/baseline/control), mean” value (Fig 6C, 550 nm (2), UV/green light cycle experiment)?
Its value is 0.221.

And the “Normalized travelled distance by tadpoles (/baseline/control), mean” value (Fig 6C, dark, UV/green light cycle experiment)?
Its value is 0.649.

What about the “Normalized travelled distance by tadpoles (/baseline/control), mean” value (Fig 6D, 460 nm (1), blue/green light cycle experiment) of the same compound?
The value was 2.548.

What about the “Normalized travelled distance by tadpoles (/baseline/control), mean” value (Fig 6D, 460 nm (2), blue/green light cycle experiment) of the same compound?
The value was 2.278.

What about the “Normalized travelled distance by tadpoles (/baseline/control), mean” value (Fig 6D, 550 nm (1), blue/green light cycle experiment) of the same compound?
Its value is 0.587.

What about the “Normalized travelled distance by tadpoles (/baseline/control), mean” value (Fig 6D, 550 nm (2), blue/green light cycle experiment) of the same compound?
The value was 0.462.

And the “Normalized travelled distance by tadpoles (/baseline/control), mean” value (Fig 6D, dark, blue/green light cycle experiment)?
The value was 0.509.

And the “Distance in mm, well mean of 3 tadpoles, uv 1 min” value (Sup. Fig. 5B, UV/green cycles, first data block (c1-c24), raw)?
The value was 543.756 mm and 730.486 mm and 588.764 mm and 724.010 mm and 734.699 mm and 651.720 mm and 525.360 mm and 469.552 mm.

What about the “Distance in mm, well mean of 3 tadpoles, green2 1 min” value [1] of the same compound?
The value was 28.734 mm and 47.149 mm and 41.068 mm and 52.900 mm and 46.164 mm and 30.050 mm and 28.925 mm and 43.119 mm.

What about the “Distance in mm, well mean of 3 tadpoles, uv 1 min” value [1] of the same compound?
Its value is 636.734 mm and 582.355 mm and 684.728 mm and 679.263 mm and 728.479 mm and 513.366 mm and 700.914 mm and 476.462 mm.

What about the “Normalized travelled distance by tadpoles (/baseline), single well” value (Sup. Fig. 5B, 365 nm (1), individual wells) of the same compound?
Its value is 1.393 and 3.082 and 2.491 and 2.557 and 3.849 and 6.596 and 1.808 and 1.431 and 6.280 and 5.411 and 9.003 and 6.422 and 6.492.

And the “Normalized travelled distance by tadpoles (/baseline), mean” value (Sup. Fig. 5B, 365 nm (1), mean of 16 wells)?
Its value is 4.878.

What about the “Normalized travelled distance by tadpoles (/baseline), single well” value (Sup. Fig. 5B, 365 nm (2), individual wells) of the same compound?
Its value is 1.002 and 2.077 and 1.181 and 1.514 and 2.542 and 5.415 and 1.765 and 1.460 and 5.497 and 4.718 and 10.726 and 5.196 and 4.515.

What about the “Normalized travelled distance by tadpoles (/baseline), mean” value (Sup. Fig. 5B, 365 nm (2), mean of 16 wells) of the same compound?
The value was 4.635.

And the “Normalized travelled distance by tadpoles (/baseline), single well” value (Sup. Fig. 5B, 550 nm (1), individual wells)?
Its value is 0.458 and 1.858 and 0.896 and 0.456 and 0.161 and 0.143 and 0.389 and 0.051 and 0.457 and 0.356 and 0.468 and 0.574 and 0.522.

And the “Normalized travelled distance by tadpoles (/baseline), mean” value (Sup. Fig. 5B, 550 nm (1), mean of 16 wells)?
The value was 0.561.

What about the “Normalized travelled distance by tadpoles (/baseline), single well” value (Sup. Fig. 5B, 550 nm (2), individual wells) of the same compound?
The value was 0.073 and 0.057 and 0.075 and 0.047 and 0.119 and 0.187 and 0.194 and 0.072 and 0.283 and 0.438 and 0.540 and 0.500 and 0.411.

What about the “Normalized travelled distance by tadpoles (/baseline), mean” value (Sup. Fig. 5B, 550 nm (2), mean of 16 wells) of the same compound?
The value was 0.274.

What about the “Normalized travelled distance by tadpoles (/baseline), single well” value (Sup. Fig. 5B, dark, individual wells (each well is the mean of 3 tadpole)) of the same compound?
Its value is 0.095 and 0.145 and 0.255 and 0.231 and 0.246 and 0.190 and 0.129 and 0.073 and 0.384 and 0.405 and 0.424 and 0.476 and 0.614.

What about the “Normalized travelled distance by tadpoles (/baseline), mean” value (Sup. Fig. 5B, dark, mean of 16 wells (each well is the mean of 3 tadpole)) of the same compound?
Its value is 0.393.

And the “Normalized travelled distance by tadpoles (/baseline)” value (Sup. Fig. 5B, dark)?
Its value is 0.643 and 0.955 and 1.031.

What about the “Normalized travelled distance by tadpoles (/baeline/control), single well” value (Sup. Fig. 5C, 460 nm (1), individual wells) of the same compound?
The value was 1.914 and 1.376 and 8.550 and 2.480 and 4.315 and 7.810 and 5.706 and 5.046 and 11.224 and 1.065 and 13.799 and 8.327 and 1.491.

And the “Normalized travelled distance by tadpoles (/baeline/control), mean” value (Sup. Fig. 5C, 460 nm (1), mean of 17 wells)?
The value was 6.279.

And the “Normalized travelled distance by tadpoles (/baeline/control), single well” value (Sup. Fig. 5C, 460 nm (2), individual wells)?
The value was 2.036 and 1.506 and 10.137 and 2.268 and 4.306 and 11.041 and 6.016 and 15.287 and 9.339 and 1.297 and 11.889 and 4.687 and 3.893.

What about the “Normalized travelled distance by tadpoles (/baeline/control), mean” value (Sup. Fig. 5C, 460 nm (2), mean of 17 wells) of the same compound?
The value was 6.476.

And the “Normalized travelled distance by tadpoles (/baseline)” value (Sup. Fig. 5C, 460 nm (2))?
Its value is 8.083 and 4.823 and 6.568 and 6.920.

What about the “Normalized travelled distance by tadpoles (/baeline/control), single well” value (Sup. Fig. 5C, 550 nm (1), individual wells) of the same compound?
Its value is 0.384 and 0.350 and 1.155 and 0.578 and 0.301 and 1.159 and 2.310 and 0.844 and 0.446 and 0.287 and 2.947 and 0.796 and 0.259.

And the “Normalized travelled distance by tadpoles (/baeline/control), mean” value (Sup. Fig. 5C, 550 nm (1), mean of 17 wells)?
The value was 0.899.

And the “Normalized travelled distance by tadpoles (/baeline/control), single well” value (Sup. Fig. 5C, 550 nm (2), individual wells)?
Its value is 0.201 and 0.140 and 0.631 and 0.384 and 0.385 and 0.939 and 0.448 and 0.727 and 1.019 and 0.143 and 0.892 and 1.756 and 0.609.

And the “Normalized travelled distance by tadpoles (/baeline/control), mean” value (Sup. Fig. 5C, 550 nm (2), mean of 17 wells)?
Its value is 0.702.

What about the “Normalized travelled distance by tadpoles (/baseline)” value (Sup. Fig. 5C, 550 nm (2)) of the same compound?
The value was 1.231 and 0.815 and 0.780 and 0.842.

What about the “Normalized travelled distance by tadpoles (/baeline/control), single well” value (Sup. Fig. 5C, dark, individual wells (each well is the mean of 3 tadpole)) of the same compound?
Its value is 0.118 and 0.080 and 0.825 and 0.228 and 0.352 and 1.330 and 0.587 and 0.877 and 0.773 and 0.144 and 0.553 and 0.717 and 0.589.

And the “Normalized travelled distance by tadpoles (/baeline/control), mean” value (Sup. Fig. 5C, dark, mean of 17 wells (each well is the mean of 3 tadpole))?
The value was 0.520.

What about the “Normalized travelled distance by tadpoles (/baseline)” value (Sup. Fig. 5C, dark) of the same compound?
Its value is 0.453 and 0.357 and 0.524 and 0.331.
